Patent US6949558B2, “Enhancement of taxane-based chemotherapy by a CDK1 antagonist” (Yale University, priority 2001, dated 2005)
Several values for one entry are separate records, joined by “and”; a condition that tells them apart may be missing. Identical values can stand only once.

How the values were obtained:
[1] = tested on: survivin phosphorylation on Thr^34 in HeLa cells; experiment: Survivin phosphorylation on Thr^34 in HeLa cells (immunoprecipitation, Western blotting); format: cell-based, human; settings: taxol 0.2 μM 16 h then Purvalanol A 20 μM 16 h
Experimental: A. In vitro kinase assay. […] Radioactive bands were detected by autoradiography. […] The immune complexesb were analyzed by Western blotting (WB) with an antibody to Thr^34-phosphorylated survivin (a-survivinT34*, top panel) or with an antibody to survivin (a-survivin, lower panel) followed by chemiluminescence. For all panels, relative molecular weight markers in kDa are shown on the left.
(§1) In some experiments, total RNA was extracted from MCF-7 cells at various time intervals after adriamycin treatment, and hybridized with 32 P-labeled survivin cDNA as described previously. Radioactive bands were detected by autoradiography. […] In other experiments, samples were transferred to nylon membranes and analyzed by Western blotting with antibodies to p34^cdc2 (1 μg/ml), survivin (2 μg/ml), or survivinT34* (5 μg/ml).
Luciferase values were normalized to β-galactosidase expression.

MCF-7 cells = experiment: Apoptosis by DNA content analysis and flow cytometry in MCF-7 cells; format: cell-based, human
Experimental: Cervical carcinoma HeLa (functionally inactivated p53) cells or breast carcinoma MCF-7 (wild type p53) cells were plated at 50-60% confluency in C-6 wells. […]
(§2) After 4, 8, 16, and 32 hours of incubation, without removing taxol from the wells, purvalanol A was added at three increasing concentrations, 1, 10 and 20 uM (FIG. 1). A control was performed with addition of purvalanol A at the 0-h time point.
(§3) The cell populations were harvested at increasing time intervals from the 0-h time point or corresponding to the addition of purvalanol A. Apoptosis was analyzed by DNA content analysis and flow cytometry (DAPI staining).

caspase-9 = experiment: Caspase-9 processing by Western blotting in HeLa cells; settings: taxol 0.2 μM, Purvalanol A 20 μM or sequential combination, 16 h
[2] = tested on: survivin expression in PC3 cells; experiment: Survivin expression by Western blotting in PC3 cells; format: cell-based; settings: taxol then Purvalanol A
MCF-7 tumors = experiment: Breast cancer xenograft model (Example 8); format: in vivo, CB17 SCID/beige mice; settings: taxol alone 2.5 or 5 mg/kg, Purvalanol A alone 20 mg/kg, i.p.
Experimental: Breast Cancer Xenograft Model: All experiments involving animals were approved by the institutional animal cure and use committee. Six- to eight-week old female CB17 SCID/beige mice (Taconic Farms, Germantown, N.Y.) were injected s.c. into the flanks with 2.5×10^6 exponentially growing MCF-7 cells in 250 μl of sterile PBS, pH 7.4. […] Animals were injected i.p. with taxol alone (2.5 or 5 mg/kg), Purvalanol A alone (20 mg/kg) or the sequential combination of taxol-Purvalanol A for two consecutive days each divided by a day with no treatment. For single agent treatment, vehicle was given in place of taxol or Purvalanol A with the same schedule. Each complete cycle was separated by 2 d without treatment. Tumor volume was measured in the three dimensions with a caliper. Animals with tumor burden >3000 mm^3 were sacrificed (Survival).
Statistical Analysis: All in vitro experiments were repeated at least three times. […] The survival curves were compared using the log-rank test. This test generates a P value testing the null hypothesis that the survival curves are identical in the overall populations.

[3] = tested on: p34^cdc2 kinase activity (MPM-2 epitope) in HeLa cells; experiment: MPM-2 mitotic phosphoepitope expression (p34^cdc2 kinase activity) in HeLa cells; format: cell-based, human
HeLa cells [4] = experiment: Apoptosis by DNA content analysis and flow cytometry in HeLa cells; format: cell-based, human
[5] = tested on: survivin expression in HeLa cells; experiment: Survivin expression by Western blotting in HeLa cells; format: cell-based, human
Experimental: (§4) Cell Cultures, Proteins and Antibodies: Breast carcinoma MCF-7 and cervical carcinoma HeLa cells (American Type Culture Collection, Manassas, Va.) were maintained in culture according to the manufacturer's specifications. For treatment with genotoxic agents, HeLa or MCF-7 cells were incubated with vehicle (DMSO) or taxol (2 μM, Sigma Chemical Co., St. Louis, Mo.), adriamycin (100 nM, Sigma), cis-platin (3 μM, Sigma) or subjected to ultraviolet B (UVB) irradiation at 50 or 300 J/m^2. In some experiments, HeLa or MCF-7 treated with taxol, adriamycin or UVB as described above were incubated with inhibitors of transcription (actinomycin D, 1 μg/ml) or translation (cycloheximide, 2 mg/ml) before determination of protein expression by Western blotting. […] A replication-deficient adenovirus encoding wild type survivin (pAd-Survivin) or control encoding Green Fluorescence Protein (pAd-GFP) was generated using the pAd-Easy system as described previously (M. Mesri et al. (2001) J. Clin. Invest. 108: 981-90), and propagated in HEK293 cells with purification by CsCl banding. […] Antibodies to p34^cdc2 or bcl-2 were obtained from Pharmingen (San Diego, Calif.) and R&D, respectively. An antibody to β-actin was from Sigma and antibodies to MPM-2 mitotic phosphoproteins was from Upstate Biotechnology (Lake Placid, N.Y.).
as §1
In other experiments, HeLa cells were treated with taxol (0.2 μM) for 16 h followed by the DNA damaging agent adriamycin (100 nM, Sigma) or the nucleoside analog 5-Fluorouracil (500 μM, Sigma) for 8-32 h at 37° C. […] In some experiments, HeLa cells were transfected by lipofectamine with a minimal survivin promoter construct upstream of a luciferase reporter gene (pLuc-cyc1.2), as described (F. Li et al. (1998) Nature 396: 580-584). Cells were treated with taxol (2 μM) or UVB (50 J/m2), and analyzed for changes in luciferase activity at increasing time intervals (12-36 h) in a luminometer. Luciferase values were normalized to β-galactosidase expression. […] The immune complexes were separated by SDS gel electrophoresis and analyzed with antibodies to survivin or a-survivinT34* by Western blotting.

HeLa cells [6] = experiment: Apoptosis by DNA content analysis and flow cytometry in HeLa cells; format: cell-based, human; remark: listed apart in the source
Experimental: Cervical carcinoma HeLa (functionally inactivated p53) cells or breast carcinoma MCF-7 (wild type p53) cells were plated at 50-60% confluency in C-6 wells. Cells were treated with taxol at 0.2 μM for 0 to 32 hours in complete media.
as §2, §3

[7] = tested on: p34^cdc2 kinase activity (MPM-2 epitope) in MCF-7 cells; experiment: MPM-2 mitotic phosphoepitope expression (p34^cdc2 kinase activity) in MCF-7 cells; format: cell-based, human; settings: adriamycin-induced G2/M arrest
Experimental: MPM-2 Mitotic Phosphoepitope Expression: For detection of mitotic phosphoproteins (D. D. Vandre et al. (1989) J. Cell Sci. 94: 245-58), MCF-7 cells (1-2×10^5 cells/60 mm dish) were treated with taxol (2 μM), adriamycin (100 nM), 50 or 300 J/m^2 UVB irradiation and cultured for 0, 8, 16, 24 or 36 h at 37° C. Cells were fixed in 70% ethanol, labeled with MPM-2 antibody (6 μg/ml) followed by addition of goat anti-mouse FITC (Boehringer Mannheim) for 1 h at 22° C. in the presence of 5 μg/ml propidium iodide (PI) containing 50 μg/ml RNase A. Samples were analyzed on a FACScan (Becton Dickinson, Mountain View, Calif.), using CellQuest software.
MPM-2 Mitotic Phosphoepitope Expression: For detection of mitotic phosphoproteins (D. D. Vandre et al. (1989) J. Cell Sci. 94: 245-258), MCF-7 cells (1-2×10^5 cells/60 mm dish) were treated with taxol (0.2 μM), or vincristine (100 nM) for increasing time intervals (8-36 h) at 37° C. Cells were fixed in 70% ethanol, labeled with MPM-2 antibody (6 μg/ml; Upstate Biotechnology, Lake Placid, N.Y.) followed by addition of goat anti-mouse FITC (Boehringer Mannheim) for 1 h at 22° C. in the presence of 5 μg/ml propidium iodide containing 50 μg/ml RNAse A. Samples were analyzed on a FACScan (Becton Dickinson, Mountain View, Calif.), using CellQuest software. Data are expressed as %MPM-2 positive cells in the entire population.

MCF-7 xenografts = format: in vivo; settings: adriamycin 2 mg/kg or flavopiridol 15 mg/kg alone, i.p.
Source text: Each complete cycle was separated by 2 d without treatment.
This test generates a P value testing the null hypothesis that the survival curves are identical in the overall populations.

[8] = tested on: survivin expression in MCF-7 cells; experiment: Survivin expression by Western blotting in MCF-7 cells; format: cell-based, human; settings: 100 nM adriamycin
Experimental: as §4, §1

[9] = tested on: survivin mRNA in MCF-7 cells; experiment: Northern hybridization of survivin mRNA in MCF-7 cells; format: cell-based, human; settings: adriamycin-treated MCF-7 cells
Experimental: as §1

[10] = taxol 2 μM, adriamycin 100 nM, cis-platin 3 μM (Example 7)

CC(C)[C@H](CO)Nc1nc(Nc2cccc(Cl)c2)c2ncn(C(C)C)c2n1 [Purvalanol A]
phosphorylation of endogenous survivin on Thr^34 [1]: suppressed phosphorylation of endogenous survivin on Thr^34
efficacy of taxol followed by purvalanol A compared with HeLa cells (MCF-7 cells; taxol 0.2 μM then purvalanol A): nearly identical
synergy with vincristine treatment (MCF-7 cells; vincristine 10 nM and 100 nM then purvalanol A 10 uM): did not synergize with vincristine treatment
caspase-9 processing (caspase-9): did not result in significant caspase-9 cleavage
effect on taxol-induced increase of survivin expression [2]: reversed
kinetics of tumor growth (MCF-7 tumors): did not affect the kinetics of tumor growth
inhibition of kinase activity (MPM-2 epitope) ([3]; 16 h after addition of purvalanol A in taxol-treated cells, cell line not stated): 70-80%
MPM-2 mitotic phosphoepitope expression ([3]; HeLa, taxol 0.2 μM 16 h then Cdk inhibitor for 16 h (Purvalanol A 10 μM, alsterpaullone 20 μM, flavopiridol 250 nM, olomoucine 400 μM)): completely suppressed MPM-2 mitotic phosphoepitope expression
MPM-2 mitotic phosphoepitope expression ([3]; HeLa, taxol 0.2 μM 16 h then Cdk inhibitor for 32 h): completely suppressed MPM-2 mitotic phosphoepitope expression
p34^cdc2 kinase activity ([3]; HeLa, vincristine 100 nM then Purvalanol A 20 μM, earliest time point tested of 8 h): suppressed p34^cdc2 kinase activity
vincristine-induced apoptosis in the presence or the absence of Purvalanol A (HeLa cells [4]; after 96 h): indistinguishable
apoptosis, purvalanol A alone or reversed schedule (HeLa cells [4]; purvalanol A 1, 10, 20 uM alone or followed by 0.2 uM taxol): no apoptosis at all
apoptosis (HeLa cells [4]; taxol 0.2 μM then 20 uM purvalanol A, 16 h after purvalanol A addition): ~90%
effect of sequential addition to taxol-treated cells (HeLa cells [4]; taxol 0.2 μM then Purvalanol A): escape from the mitotic block, and massive apoptosis
apoptosis (HeLa cells [4]; vincristine then Purvalanol A, throughout a 32-h culture): did not result in induction of apoptosis
survivin levels ([5]; Purvalanol A alone or Purvalanol A followed by taxol): did not affect survivin levels
survivin expression ([5]; taxol 0.2 μM 16 h then Purvalanol A 20 μM 16 h): inhibition of increased survivin expression after taxol treatment
survivin expression ([5]; vincristine then Purvalanol A): reversed the increase in survivin expression
cell population with hypodiploid (apoptotic) DNA content / cell death (HeLa cells [6]; HeLa, 16 h, taxol 0.2 μM, Purvalanol A 20 μM, alone or sequential): 6%
cell cycle arrest (HeLa cells [6]; HeLa, taxol 0.2 μM or purvalanol A 1-20 uM alone (Examples 1, 2)): strong M arrest
apoptosis (HeLa cells [6]; HeLa, taxol 0.2 μM then 20 uM purvalanol A, 8 h after purvalanol A addition): 40%
effect of purvalanol A on taxol-treated cells, concentration dependence (HeLa cells [6]; purvalanol A 1, 10 and 20 uM added after taxol 0.2 μM): dose dependent

COc1cccc2c1C(=O)c1c(O)c3c(c(O)c1C2=O)C[C@@](O)(C(=O)CO)C[C@@H]3O[C@H]1C[C@H](N)[C@H](O)[C@H](C)O1 [adriamycin, doxorubicin]
apoptosis (MCF-7 cells; adriamycin 100 nM alone, three values given, their conditions not stated): 2% and 3% and 10%
apoptosis (MCF-7 cells; [10]): negligible apoptosis
cell cycle arrest (MCF-7 cells; [10]): G2/M arrest
enhancement of taxol-induced cell death (MCF-7 cells; taxol then adriamycin 100 nM and 200 nM in place of purvalanol A): did not enhance taxol-induced cell death
residual cell population exhibiting MPM-2 expression [7]: 20-25%
kinetics of tumor growth vs vehicle (MCF-7 xenografts): did not affect the kinetics of tumor growth
survivin expression [8]: increased survivin expression
enhancement of apoptosis vs single agent treatment (HeLa cells [4]; taxol 0.2 μM 16 h then adriamycin 100 nM or 5-Fluorouracil 500 μM): did not result in enhanced apoptosis
survivin mRNA [9]: no detectable increase in survivin mRNA
